The values below come from patent US12303509B2, “Compounds for the treatment of BRAF-associated diseases and disorders” (Pfizer Inc., priority 2020, dated 2025).

Data set [1] addresses P-gp (MDR1) (Homo sapiens (Human), UniProt P08183). The data set can be described thus: MDR1 LLC-PK1 permeability assay: efflux ratio. The class given is in vitro ADME. The conditions noted are these: pig. The source says:
(§1) Final organic concentration in the assay was 1%.

Data set [2] relates to A375 cells. Put plainly: Cellular phospho-ERK inhibition assay in A375 cells. The class given is cell-based. The conditions noted are these: Homo sapiens, A-375, A375 cells (head prints A357), 2 hours treatment, read-out: A357 cell IC50. The gist of the method: (§2)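 A375 (DMEM) or H1755 (RPMI) cells in 10% FBS treated 2 h at 37 °C with 9-point series, 66 pM–10 μM, 0.25% DMSO. Phospho-ERK1/2 (Thr202/Tyr204) measured by In Cell Western, normalised to GAPDH and to DMSO and 10 μM binimetinib controls; IC50 by 4-parameter fit.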

Data set [3] is described as follows: MDR1 LLC-PK1 and BCRP MDCKII permeability assay: permeability coefficient (Papp). It is filed as in vitro ADME.
Text: as §1

The test system of data set [4] is H1755 cells. The data set can be described thus: Cellular phospho-ERK inhibition assay in H1755 cells. The class given is cell-based. The settings on record: Homo sapiens, NCI-H1755, 2 hours treatment, read-out: H1755 Cell IC50. The gist of the method:
as §2

For data set [5], the target named is full-length FLAG-tagged B-Raf(V600E) (Homo sapiens (Human), UniProt P15056, V600E). The data set can be described thus: BRAF V600E enzyme assay (TR-FRET competitive displacement). The class given is binding. The settings on record: averaged IC50; TR-FRET tracer displacement, 60 min. In a few lines:
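Displacement of 50 nM Tracer 1710 from 5 nM full-length N-terminally FLAG-tagged B-Raf(V600E), detected by TR-FRET with 0.5 nM Eu anti-FLAG antibody, in 25 mM HEPES pH 7.4, 10 mM MgCl2, 2% DMSO; 60 min at ~22 °C. Compounds 11-point, 3-fold from 10 μM; IC50 from 4-parameter fit at 50 POC.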
On the technique in general: In TR-FRET formats the signal depends on donor and acceptor labels being close together.

The target in data set [6] is BCRP (Homo sapiens (Human), UniProt Q9UNQ0). The data set can be described thus: BCRP MDCKII permeability assay: efflux ratio. The class given is in vitro ADME. The settings on record: dog.
BCRP, sequence (Q9UNQ0 whole entry): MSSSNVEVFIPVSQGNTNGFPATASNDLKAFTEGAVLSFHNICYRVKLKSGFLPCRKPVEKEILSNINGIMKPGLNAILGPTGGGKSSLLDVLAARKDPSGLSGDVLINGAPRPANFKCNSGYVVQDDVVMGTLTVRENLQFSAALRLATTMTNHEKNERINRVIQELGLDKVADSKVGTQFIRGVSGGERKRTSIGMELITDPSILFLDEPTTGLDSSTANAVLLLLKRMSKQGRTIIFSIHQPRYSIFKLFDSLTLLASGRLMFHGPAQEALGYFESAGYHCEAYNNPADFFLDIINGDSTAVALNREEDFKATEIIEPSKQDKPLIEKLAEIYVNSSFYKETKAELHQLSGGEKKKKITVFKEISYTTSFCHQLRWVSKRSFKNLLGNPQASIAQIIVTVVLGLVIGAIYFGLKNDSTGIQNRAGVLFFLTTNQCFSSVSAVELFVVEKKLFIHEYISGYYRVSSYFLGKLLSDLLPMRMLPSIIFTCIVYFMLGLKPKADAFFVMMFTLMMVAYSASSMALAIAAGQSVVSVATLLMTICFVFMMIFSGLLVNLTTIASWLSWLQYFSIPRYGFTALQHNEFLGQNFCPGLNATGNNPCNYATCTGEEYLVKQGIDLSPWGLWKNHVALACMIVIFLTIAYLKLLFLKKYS
Protocol: BCRP transfected MDCKII cells were cultured and plated according to manufacturer's recommendations. Assay conditions included with and without the BCRP-specific inhibitor, KO143, at a concentration of 0.3 μM to ascertain the contribution of BCRP to the efflux value of the test compound.
Both positive and negative controls were used to assess functionality of P-gp or BCRP efflux in the assays. […] Final organic concentration in the assay was 1%. All dosing solutions contained 10 μM lucifer yellow to monitor LLC-PK1 or MDCKII cell monolayer integrity.
For the apical to basolateral determination (A to B), 75 μL of the test article in transport buffer were added to the apical side of the individual transwells and 250 μL of basolateral media, without compound or lucifer yellow, were added to each well. For the basolateral to apical determination (B to A), 250 μL of test article in transport buffer were added to each well and 75 μL transport buffer, without compound or lucifer yellow, were added to each transwell. All tests were performed in triplicate, and each compound was tested for both apical to basolateral and basolateral to apical transport. The plates were incubated for 2 hours on a Lab-Line Instruments Titer Orbital Shaker (VWR, West Chester, PA) at 50 rpm and 37° C. with 5% CO2. All culture plates were removed from the incubator and 50 μL of media were removed from the apical and basolateral portion of each well and added to 150 μL of 1 μM labetalol in 2:1 acetonitrile (acetonitrile): H2O, v/v.
These values were accepted when found to be below 2% for apical to basolateral and 5% basolateral to apical flux across the MDR1-transfected LLC-PK1 or BCRP-transfected MDCKII cell monolayers. The plates were sealed and the contents of each well analyzed by LC-MS/MS. The compound concentrations were determined from the ratio of the peak areas of the compound to the internal standard (labetalol) in comparison to the dosing solution.
The LC-MS/MS system was comprised of an HTS-PAL autosampler (Leap Technologies, Carrboro, NC), an HP1200 HPLC (Agilent, Palo Alto, CA), and a MDS Sciex 4000 Q Trap system (Applied Biosystems, Foster City, CA). […] The total run time, including re-equilibration, for a single injection was 1.2 minutes. Mass spectrometric detection of the analytes was accomplished using the ion spray positive mode.
An efflux ratio is calculated from the mean apical to basolateral (A-B) Papp data and basolateral to apical (B-A) Papp data using the following equation: Efflux ratio=Papp(B-A)/Papp(A-B)

Where a name gives a salt, the structure may show the parent alone.

full-length FLAG-tagged B-Raf(V600E), sequence (P15056 whole entry V600E): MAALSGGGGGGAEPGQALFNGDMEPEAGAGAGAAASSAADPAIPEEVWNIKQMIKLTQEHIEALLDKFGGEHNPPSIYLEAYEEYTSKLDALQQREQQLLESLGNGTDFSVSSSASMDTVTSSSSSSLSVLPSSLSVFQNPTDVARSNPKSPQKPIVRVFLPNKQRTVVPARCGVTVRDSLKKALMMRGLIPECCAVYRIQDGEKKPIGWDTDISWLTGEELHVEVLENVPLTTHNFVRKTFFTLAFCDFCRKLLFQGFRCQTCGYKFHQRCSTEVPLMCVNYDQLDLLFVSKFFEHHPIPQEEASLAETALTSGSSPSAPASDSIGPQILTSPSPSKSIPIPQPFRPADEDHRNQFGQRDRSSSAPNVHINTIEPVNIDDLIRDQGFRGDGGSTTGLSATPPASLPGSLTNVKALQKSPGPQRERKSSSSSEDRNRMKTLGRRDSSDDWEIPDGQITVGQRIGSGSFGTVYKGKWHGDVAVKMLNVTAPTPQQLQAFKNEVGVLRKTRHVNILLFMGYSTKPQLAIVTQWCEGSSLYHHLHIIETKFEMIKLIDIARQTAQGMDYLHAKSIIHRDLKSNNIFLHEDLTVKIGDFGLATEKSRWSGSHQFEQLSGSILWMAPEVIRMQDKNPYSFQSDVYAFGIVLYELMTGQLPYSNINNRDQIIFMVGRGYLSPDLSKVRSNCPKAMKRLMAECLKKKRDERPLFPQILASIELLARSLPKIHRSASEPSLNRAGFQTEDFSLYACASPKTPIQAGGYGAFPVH
P-gp (MDR1), sequence (P08183 whole entry, species assumed): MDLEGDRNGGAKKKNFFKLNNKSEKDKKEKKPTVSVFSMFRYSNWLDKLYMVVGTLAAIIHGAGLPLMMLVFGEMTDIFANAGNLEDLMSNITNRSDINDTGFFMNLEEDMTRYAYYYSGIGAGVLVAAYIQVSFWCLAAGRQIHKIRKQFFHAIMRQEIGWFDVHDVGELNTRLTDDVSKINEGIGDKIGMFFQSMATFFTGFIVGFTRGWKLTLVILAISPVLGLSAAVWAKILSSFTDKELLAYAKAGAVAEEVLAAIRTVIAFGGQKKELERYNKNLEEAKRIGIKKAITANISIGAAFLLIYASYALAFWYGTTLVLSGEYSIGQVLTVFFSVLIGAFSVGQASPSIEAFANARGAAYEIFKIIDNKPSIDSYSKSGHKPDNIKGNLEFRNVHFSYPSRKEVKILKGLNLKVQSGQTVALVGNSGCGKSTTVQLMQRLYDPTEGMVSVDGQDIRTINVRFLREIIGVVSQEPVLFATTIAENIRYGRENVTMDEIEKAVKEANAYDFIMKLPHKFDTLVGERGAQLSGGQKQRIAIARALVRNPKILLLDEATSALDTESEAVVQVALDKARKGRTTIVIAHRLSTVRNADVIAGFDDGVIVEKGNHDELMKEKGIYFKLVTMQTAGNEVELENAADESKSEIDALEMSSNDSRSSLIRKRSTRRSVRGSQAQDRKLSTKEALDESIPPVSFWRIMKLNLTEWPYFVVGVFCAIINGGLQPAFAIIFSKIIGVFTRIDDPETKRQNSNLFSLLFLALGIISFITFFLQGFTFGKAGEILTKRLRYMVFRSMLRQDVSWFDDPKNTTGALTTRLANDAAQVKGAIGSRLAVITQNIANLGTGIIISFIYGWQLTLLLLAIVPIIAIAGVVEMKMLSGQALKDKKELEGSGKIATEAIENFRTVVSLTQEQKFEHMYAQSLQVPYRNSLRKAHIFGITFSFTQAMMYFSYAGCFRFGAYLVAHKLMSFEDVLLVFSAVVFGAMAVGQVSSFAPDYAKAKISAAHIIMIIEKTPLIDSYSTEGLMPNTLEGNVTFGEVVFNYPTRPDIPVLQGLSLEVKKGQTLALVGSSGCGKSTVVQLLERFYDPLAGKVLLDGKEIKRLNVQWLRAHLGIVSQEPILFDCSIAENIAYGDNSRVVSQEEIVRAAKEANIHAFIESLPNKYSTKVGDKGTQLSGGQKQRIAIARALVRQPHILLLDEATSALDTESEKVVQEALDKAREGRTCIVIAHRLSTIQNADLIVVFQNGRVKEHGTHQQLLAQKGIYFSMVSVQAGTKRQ

By efflux ratio is commonly meant the permeability from basolateral to apical divided by that in the opposite direction, in the common usage. Broadly, the IC50 is the concentration at which inhibition is half-maximal. Usually Papp stands for the rate of passage across a membrane or cell layer, normalised by area and donor concentration. A higher Papp goes with fast passage. Take `Cn1cnc2ccc(Nc3c(F)ccc(NS(=O)(=O)N4CC[C@H](F)C4)c3Cl)c(Cl)c2c1=O` [Example 28, (S)-N-(2-chloro-3-((5-chloro-3-methyl-4-oxo-3,4-dihydroquinazolin-6-yl)amino)-4-fluorophenyl)-3-fluoropyrrolidine-1-sulfonamide]: the efflux ratio at 2 h, 1 µM in data set [1] stood at 2; in data set [6] it was 1.7. Moreover, the values for the IC50 in data set [2], in data set [4] and in data set [5] were 7 nM, 38 nM and 4 nM, respectively. In data set [3], this compound displayed a Papp at 2 h, 1 µM of 370 nm/s.
With `Cn1cnc2ccc(Nc3c(F)c(F)cc(NS(=O)(=O)N4CCCC4)c3Cl)c(Cl)c2c1=O` [Example 31, N-(2-chloro-3-((5-chloro-3-methyl-4-oxo-3,4-dihydroquinazolin-6-yl)amino)-4,5-difluorophenyl)pyrrolidine-1-sulfonamide trifluoroacetate], the efflux ratio at 2 h, 1 µM in data set [1] is 1.2; in data set [6] it was 1. In addition, the half-inhibitory concentration (IC50) stood at 9 nM in data set [2], 168 nM in data set [4] and 1 nM in data set [5]. In data set [3], this compound returned an apparent permeability (Papp) at 2 h, 1 µM of 310 nm/s.
As for `CO[C@@H]1CCN(S(=O)(=O)Nc2cc(F)c(F)c(Nc3ccc4ncn(C)c(=O)c4c3Cl)c2Cl)C1` [Example 32, (R)-N-(2-chloro-3-((5-chloro-3-methyl-4-oxo-3,4-dihydroquinazolin-6-yl)amino)-4,5-difluorophenyl)-3-methoxypyrrolidine-1-sulfonamide trifluoroacetate], the efflux ratio at 2 h, 1 µM in data set [1] was 1.8; in data set [6] it was 1. In addition, the figures for the half-inhibitory concentration (IC50) in data set [2], in data set [4] and in data set [5] were 5 nM, 83 nM and 2 nM, respectively. Moreover, in data set [3], the apparent permeability coefficient (Papp) at 2 h, 1 µM came out at 320 nm/s.
With `Cn1cnc2ccc(Nc3c(F)c(F)cc(NS(=O)(=O)N4CC[C@@H](F)C4)c3Cl)c(Cl)c2c1=O` [Example 33, (R)-N-(2-chloro-3-((5-chloro-3-methyl-4-oxo-3,4-dihydroquinazolin-6-yl)amino)-4,5-difluorophenyl)-3-fluoropyrrolidine-1-sulfonamide trifluoroacetate], the efflux ratio at 2 h, 1 µM in data set [1] was 1.7; in data set [6], 2.2. The half-inhibitory concentration (IC50) is 8 nM in data set [2], 84 nM in data set [4] and 1 nM in data set [5]. Further, in data set [3], the apparent permeability coefficient (Papp) at 2 h, 1 µM came out at 250 nm/s.
For `CO[C@@H]1CCN(S(=O)(=O)Nc2cc(F)c(F)c(Nc3ccc4ncn(C)c(=O)c4c3Cl)c2F)C1` [Example 34, (R)-N-(3-((5-chloro-3-methyl-4-oxo-3,4-dihydroquinazolin-6-yl)amino)-2,4,5-trifluorophenyl)-3-methoxypyrrolidine-1-sulfonamide], the values for the efflux ratio at 2 h, 1 µM in data set [1] and in data set [6] were 2.9 and 2.6, respectively. The half-inhibitory concentration (IC50) in data set [2] stood at 4 nM; in data set [4] it was 54 nM; in data set [5], 4 nM. The same compound came in with an apparent permeability (Papp) at 2 h, 1 µM in data set [3] of 300 nm/s.
For the compound `Cc1c(Nc2c(F)c(F)cc(NS(=O)(=O)N3CC[C@@H](F)C3)c2Cl)ccc2ncn(C)c(=O)c12` [Example 35, (R)-N-(2-chloro-3-((3,5-dimethyl-4-oxo-3,4-dihydroquinazolin-6-yl)amino)-4,5-difluorophenyl)-3-fluoropyrrolidine-1-sulfonamide], the efflux ratio at 2 h, 1 µM in data set [1] was 1.5; in data set [6] it was 2.1. The IC50 in data set [2] was 21 nM; in data set [4] it was 163 nM; in data set [5] it was 2 nM. The Papp at 2 h, 1 µM in data set [3] came out at 310 nm/s.
Consider `Cn1cnc2ccc(Nc3c(F)c(F)cc(NS(=O)(=O)N4CC[C@@H](F)C4)c3F)c(Cl)c2c1=O` [Example 36, (R)-N-(3-((5-chloro-3-methyl-4-oxo-3,4-dihydroquinazolin-6-yl)amino)-2,4,5-trifluorophenyl)-3-fluoropyrrolidine-1-sulfonamide trifluoroacetate], for which the efflux ratio at 2 h, 1 µM in data set [1] amounted to 2.9; in data set [6], 9.9. Also, the figures for the concentration for half-maximal inhibition (IC50) in data set [2], in data set [4] and in data set [5] were 5 nM, 61 nM and 1 nM, respectively. In data set [3], this compound showed a Papp at 2 h, 1 µM of 250 nm/s.
Turning to `Cn1cnc2ccc(Oc3c(F)ccc(NS(=O)(=O)N4CCCC4)c3Cl)c(Cl)c2c1=O` [Example 39, N-(2-chloro-3-((5-chloro-3-methyl-4-oxo-3,4-dihydroquinazolin-6-yl)oxy)-4-fluorophenyl)pyrrolidine-1-sulfonamide], the efflux ratio at 2 h, 1 µM was 1.3 in data set [1] and 0.9 in data set [6]. Moreover, the figures for the 50% inhibitory concentration (IC50) in data set [2], in data set [4] and in data set [5] were 8 nM, 55 nM and 3 nM, respectively. In data set [3], this compound had a Papp at 2 h, 1 µM of 230 nm/s.
For `O=c1c2c(F)c(Nc3c(F)ccc(NS(=O)(=O)N4CCCC4)c3Cl)ccc2ncn1CF` [Example 42, N-(2-chloro-4-fluoro-3-((5-fluoro-3-(fluoromethyl)-4-oxo-3,4-dihydroquinazolin-6-yl)amino)phenyl)pyrrolidine-1-sulfonamide trifluoroacetate], the efflux ratio at 2 h, 1 µM in data set [1] was 1.8; in data set [6], 2.4. For the same compound, the IC50 in data set [2] came out at 4 nM; in data set [4], 42 nM; in data set [5], 2 nM. In data set [3], the apparent permeability (Papp) at 2 h, 1 µM is 270 nm/s.
Turning to `Cn1cnc2ccc(Nc3c(F)c(F)cc(NS(=O)(=O)N4CCCC4)c3F)c(Cl)c2c1=O` [Example 43, N-(3-((5-chloro-3-methyl-4-oxo-3,4-dihydroquinazolin-6-yl)amino)-2,4,5-trifluorophenyl)pyrrolidine-1-sulfonamide trifluoroacetate], the efflux ratio at 2 h, 1 µM in data set [1] was determined as 1.8; in data set [6] it was 1.9. Also, the IC50 was determined as 4 nM in data set [2], 45 nM in data set [4] and 1 nM in data set [5]. Further, the apparent permeability (Papp) at 2 h, 1 µM in data set [3] amounted to 320 nm/s.
Turning to `CCN(C)S(=O)(=O)Nc1cc(F)c(F)c(Nc2ccc3ncn(C)c(=O)c3c2F)c1Cl` [Example 45, N-(2-chloro-4,5-difluoro-3-((5-fluoro-3-methyl-4-oxo-3,4-dihydroquinazolin-6-yl)phenyl)-(N-ethyl-N-methyl)-sulfamide trifluoroacetate], the efflux ratio at 2 h, 1 µM in data set [1] and in data set [6] was 1.6 throughout. Moreover, the IC50 in data set [2] was 4 nM; in data set [4], 102 nM; in data set [5] it was 4 nM. The same compound showed an apparent permeability (Papp) at 2 h, 1 µM in data set [3] of 400 nm/s.
Turning to `Cn1cnc2ccc(Nc3c(F)c(F)cc(NS(=O)(=O)N4CC[C@@H](F)C4)c3Cl)c(F)c2c1=O` [Example 46, (R)-N-(2-chloro-4,5-difluoro-3-((5-fluoro-3-methyl-4-oxo-3,4-dihydroquinazolin-6-yl)amino)phenyl)-3-fluoropyrrolidine-1-sulfonamide trifluoroacetate], the figures for the efflux ratio at 2 h, 1 µM in data set [1] and in data set [6] were 2.8 and 6.3, respectively. The half-inhibitory concentration (IC50) worked out at 2 nM in data set [2], 103 nM in data set [4] and 1 nM in data set [5]. The compound also displayed a Papp at 2 h, 1 µM in data set [3] of 300 nm/s.
For `CO[C@@H]1CCN(S(=O)(=O)Nc2cc(F)c(F)c(Nc3ccc4ncn(C)c(=O)c4c3F)c2Cl)C1` [Example 47, (R)-N-(2-chloro-4,5-difluoro-3-((5-fluoro-3-methyl-4-oxo-3,4-dihydroquinazolin-6-yl)amino)phenyl)-3-methoxypyrrolidine-1-sulfonamide trifluoroacetate], the efflux ratio at 2 h, 1 µM in data set [1] was found to be 3.6; in data set [6], 2.5. Further, the 50% inhibitory concentration (IC50) in data set [2] was 2 nM; in data set [4] it was 23 nM; in data set [5], 2 nM. Besides, the Papp at 2 h, 1 µM in data set [3] is 260 nm/s.
On to `Cn1cnc2ccc(Oc3c(F)ccc(NS(=O)(=O)N4CC5CC4C5)c3Cl)c(F)c2c1=O` [Example 49, N-(2-chloro-4-fluoro-3-((5-fluoro-3-methyl-4-oxo-3,4-dihydroquinazolin-6-yl)oxy)phenyl)-2-azabicyclo[2.1.1]hexane-2-sulfonamide], for which the efflux ratio at 2 h, 1 µM in data set [1] stood at 1.4; in data set [6], 1. Besides, the IC50 in data set [2] came to 3 nM; in data set [4] it was 70 nM; in data set [5], 2 nM. Besides, the Papp at 2 h, 1 µM in data set [3] turned out to be 300 nm/s.
With `Cn1cnc2ccc(Nc3c(F)ccc(NS(=O)(=O)N4CCCC4)c3Cl)c(C#N)c2c1=O` [Example 50, N-(2-chloro-3-((5-cyano-3-methyl-4-oxo-3,4-dihydroquinazolin-6-yl)amino)-4-fluorophenyl)pyrrolidine-1-sulfonamide trifluoroacetate], the efflux ratio at 2 h, 1 µM in data set [1] turned out to be 5.3; in data set [6], 6.3. Also, the IC50 in data set [2] came out at 1 nM; in data set [4], 20 nM; in data set [5], 2 nM. In data set [3], this compound returned a Papp at 2 h, 1 µM of 260 nm/s.
